Laboratory results taken from patent US20240352145A1, “EFFICACY OF ANTI-TROP-2-SN-38 ANTIBODY DRUG CONJUGATES FOR THERAPY OF TUMORS RELAPSED/REFRACTORY TO CHECKPOINT INHIBITORS” (Immunomedics, Inc., priority 2016, published 2024).

How the values were obtained:
NCI-N87 = test: Cytotoxicity (MTS), Example 6, NCI-N87; type: cell-based, human; conditions: NCI-N87, 96 h
Method: One day prior to adding the ADCs, cells were harvested from tissue culture and plated into 96-well plates. […] Plates were incubated at 37° C. for 96 h. […] Growth inhibition was measured as a percent of growth relative to untreated cells using Microsoft Excel and Prism software (non-linear regression to generate sigmoidal dose response curves which yield IC50-values.

metastatic SCLC = test: Phase I/II, metastatic SCLC cohort; type: in vivo, human
MDA-MB-468 TNBC tumors = test: MDA-MB-468 TNBC xenograft; type: in vivo, mouse
[1] = mouse, in vivo
Method: One group was injected intravenously with 20 μCi (250-μg protein) of ^111In-sacituzumab govitecan, whereas another group received 20 μCi (250-μg protein) of ^111In-hRS7 IgG. At various timepoints mice (5 per timepoint) were anesthetized, bled via intracardiac puncture, and then euthanized. Tumors and various tissues were removed, weighed, and counted by γ scintillation to determine the percentage injected dose per gram tissue (% ID/g). […] Pharmacokinetic analysis on blood clearance was performed using WinNonLin software (Parsight Corp.).

BxPC-3 = test: ADCC activity of hRS7-ADC conjugates; type: cell-based, human; conditions: 33.3 nM; PBMC effector to target ratio 100:1
Excerpt: PBMCs were purified from blood purchased from the Blood Center of New Jersey. A Trop-2-positive human pancreatic adenocarcinoma cell line (BxPC-3) was used as the target cell line with an effector to target ratio of 100:1.

[2] = test system: BxPC-3 human pancreatic tumors; test: BxPC-3 xenograft therapy; type: in vivo, mouse
Method: NCr female athymic nude (nu/nu) mice, 4 to 8 weeks old, and male Swiss-Webster mice, 10 weeks old, were purchased from Taconic Farms. Tolerability studies were performed in Cynomolgus monkeys (Macaca fascicularis; 2.5-4 kg male and female) by SNBL USA, Ltd. Animals were implanted subcutaneously with different human cancer cell lines. Tumor volume (TV) was determined by measurements in 2 dimensions using calipers, with volumes defined as: L×w^2/2, where L is the longest dimension of the tumor and w is the shortest. […] This dosing frequency reflected a consideration of the conjugate's serum half-life […], to allow a more continuous exposure to the ADC.
Statistics—Growth curves are shown as percent change in initial TV over time. Statistical analysis of tumor growth was based on area under the curve (AUC). Profiles of individual tumor growth were obtained through linear-curve modeling. An f-test was employed to determine equality of variance between groups before statistical analysis of growth curves. A 2-tailed t-test was used to assess statistical significance between the various treatment groups and controls, except for the saline control, where a 1-tailed t-test was used (significance at P≤0.05). Statistical comparisons of AUC were performed only up to the time that the first animal within a group was euthanized due to progression.

[3] = mouse, in vivo; remark: listed apart in the source
[4] = Tolerability in Cynomolgus monkeys; type: in vivo, Macaca fascicularis
Excerpt: Dosages, times, and number of monkeys bled for evaluation of possible hematologic toxicities and serum chemistries are described in the Results.

p21^Waf1/Cip1 and p53 = test: Signaling events (p21Waf1/Cip1, p53) in BxPC-3; type: cell-based, human
Excerpt: Our initial studies examined the expression of 2 proteins involved in early signaling events (p21^Waf1/Cip1 and p53) and 1 late apoptotic event [cleavage of poly-ADP-ribose polymerase (PARP)] in vitro (not shown).

urothelial cancer = test: Phase I/II, urothelial cancer cohort; type: in vivo, human
Calu-3 = test: In vitro cytotoxicity, Calu-3
Excerpt: Cell lines, antibodies, and chemotherapeutics—All human cancer cell lines used in this study were purchased from the American Type Culture Collection.

[5] = test system: human gastric carcinoma xenografts (NCI-N87); test: NCI-N87 xenograft, comparison of anti-Trop-2 ADCs; type: in vivo, mouse
Method: NCI-N87 cells were expanded in tissue culture and harvested with trypsin/EDTA. Female athymic nude mice were injected s.c. with 200 μL of NCI-N87 cell suspension mixed 1:1 with matrigel such that 1×10^7 cells was administered to each mouse. Once tumors reached approximately 0.25 cm^3 in size (6 days later), the animals were divided up into seven different treatment groups of nine mice each. For the SN-38 ADCs, mice received 500 μg i.v. injections once a week for two weeks. Control mice received the non-tumor targeting hA20-SN-38 ADC at the same dose/schedule. A final group of mice received only saline and served as the untreated control. Tumors were measured and mice weighed twice a week. Mice were euthanized for disease progression if their tumor volumes exceeded 1.0 cm^3 in size.

[6] = test system: NCI-N87 human gastric tumor xenografts; test: Dose schedules and chronic dosing, NCI-N87 xenograft; type: in vivo, mouse
Excerpt: In Vivo Therapeutic Studies—NCr female athymic nude (nu/nu) mice, 4-8 weeks old, were purchased from Taconic Farms (Germantown, NY). NCI-N87 gastric tumor xenografts were established by harvesting cells from tissue culture and making a final cell suspension 1:1 in matrigel (BD Bioscience; San Jose, CA), with each mouse receiving a total of 1×10^7 cells s.c. in the right flank. For BxPC-3. xenografts of 1 g were harvested, and a tumor suspension made in HBSS to a concentration of 40% tumor w/v. This suspension was mixed 1:1 with matrigel for a final tumor suspension of 20% w/v. […] For IHC, tumors were allowed to grow to approximately 0.5 cm^3 before the mice were euthanized and the tumors removed, formalin-fixed and paraffin-embedded. For therapy studies, mice were randomized into treatment groups and therapy begun when tumor volumes were approximately 0.25 cm^3.
Mice were euthanized and deemed to have succumbed to disease once tumors grew to greater than 1.0 cm^3 in size. […] Time to progression (TTP) was determined as time post-therapy initiation when the tumor grew more than 20% in size from its nadir.
A similar dose schedule experiment was performed in mice bearing NCI-N87 human gastric tumor xenografts (not shown). […] Likewise, in terms of overall survival, while all three dose schedules provided a significant survival benefit when compared to untreated control (P<0.0001), there were no differences between any of these three different schedules.
In all, four treatment cycles were administered to the animals.

IMMU-132
IC50 (NCI-N87): 3.6 nM | median OS (metastatic SCLC; 8 mg/kg): 8.1 months | median PFS (metastatic SCLC; 8 mg/kg): 2.0 months | median PFS (metastatic SCLC; 10 mg/kg): 3.6 months | median time to progression (metastatic SCLC; in vivo): 4.9 months | tumor response (MDA-MB-468 TNBC tumors; 0.12 or 0.20 mg/kg SN-38-equivalents, vs saline, irinotecan, hA20-CL2A-SN-38): induced significant tumor regression | total volume [TV] five weeks after re-treatment (MDA-MB-468 TNBC tumors; mice progressed on hA20-CL2A-SN-38 (0.74±0.41 cm^3), then 0.2 mg/kg): 0.14±0.14 cm^3 | decrease in tumor size after re-treatment (MDA-MB-468 TNBC tumors; one animal each, tumors progressed to ~0.7 cm^3 on irinotecan): 60% | amount in tumor vs hRS7 IgG [1]: similar | specific lysis (ADCC) (BxPC-3): no difference between hRS7-NEM and sacituzumab govitecan | tumor volume (TV) ([2]; day 21, equivalent amounts of ADC): 0.24±0.11 cm^3 | tumor volume (TV) ([2]; day 25): 0.27±0.18 cm^3 | clearance vs unconjugated IgG [3]: no significant difference in the clearance | serum chemistries ([4]; 2x0.96 mg SN-38/kg): No abnormal values | weight loss ([4]; 2x0.96 mg SN-38/kg): ≤ 7.3% | histopathology, microscopic changes ([4]; 2x0.96 mg SN-38/kg, day 11): minimal to moderate | blood counts ([4]; 2x0.96 mg/kg, transient decreases, listed as sacituzumab govitecan): the values did not fall below normal ranges | deaths ([4]; 2x1.92 mg SN-38/kg, gastrointestinal complications and bone marrow suppression): 1 | extrapolated human dose ([4]; cynomolgus monkey, in vivo): ~0.3 mg/kg/dose | exposure time at which p53 upregulation is evident (p21^Waf1/Cip1 and p53): ≤ 24 h | PR, patients (urothelial cancer; 11 assessable patients, 8 or 10 mg/kg): 6 | median time to progression (urothelial cancer; in vivo): 8.1 months | IC50 (Calu-3): 9.97 nM | tumor growth (AUC) vs saline and hA20-SN-38 ([5]; 500 μg i.v. once a week for two weeks): significantly inhibited tumor growth | mean time to tumor progression (TTP) ([5]; mouse, in vivo): 18.4 ± 3.3 days | mice with stable disease ([5]; nine mice per group): 7 of 9 | TTP ([6]; 0.5 mg once a week for two weeks, one week off, four cycles): 15.7 ± 11.1 days | treatment-related toxicities ([6]; all dosing scheme evaluations, body weight): no treatment-related toxicities were observed | increase in median survival vs control ADC ([6]; chronic dosing): 3 fold | median survival ([6]; chronic dosing, four cycles): 63 days

hRS7 IgG
specific lysis (ADCC) (BxPC-3): 8.5% | exposure time at which p53 upregulation is evident (p21^Waf1/Cip1 and p53): 48 h
